The record followed here is patent US9260408B2, “Dihydroquinoline-2-one derivatives” (Hoffmann-La Roche Inc., priority 2011, dated 2016).

pEC50: −log10 of the molar value. Counter-ions that a name gives are not always drawn.

The target of one test is T1, human CYP11B2 (Homo sapiens, UniProt P19099).
T1 construct: expressed in transfected cells
T1 sequence (P19099 25-503): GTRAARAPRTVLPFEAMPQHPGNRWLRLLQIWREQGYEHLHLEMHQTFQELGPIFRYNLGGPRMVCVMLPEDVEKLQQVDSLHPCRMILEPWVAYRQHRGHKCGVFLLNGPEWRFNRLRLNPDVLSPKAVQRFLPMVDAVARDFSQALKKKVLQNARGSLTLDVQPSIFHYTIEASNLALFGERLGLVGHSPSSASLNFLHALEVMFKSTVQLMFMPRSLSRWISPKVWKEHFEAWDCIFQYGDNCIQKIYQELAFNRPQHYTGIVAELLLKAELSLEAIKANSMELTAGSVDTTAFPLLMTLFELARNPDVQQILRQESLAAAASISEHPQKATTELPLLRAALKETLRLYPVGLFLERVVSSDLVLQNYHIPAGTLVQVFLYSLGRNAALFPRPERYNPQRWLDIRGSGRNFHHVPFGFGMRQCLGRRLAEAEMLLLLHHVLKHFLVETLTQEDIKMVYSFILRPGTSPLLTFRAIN
The test can be described thus: G-402 cellular enzyme assay, human CYP11B2 (aldosterone release, HTRF). Format: cell-based. Conditions: G-402 cells expressing human CYP11B2; 1 μM Deoxycorticosterone. A digest of the protocol: (§1)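 G-402 cells stably expressing human CYP11B2 or CYP11B1, in DMEM/F12 with 2.5% charcoal-treated FCS, were incubated 16 h with compound plus 1 μM deoxycorticosterone (CYP11B2) or 1 μM deoxycortisol (CYP11B1). Aldosterone or cortisol in the supernatant measured by HTRF; EC50 from a 4-parameter MMF fit.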
For orientation: Time-resolved FRET reads energy transfer from a long-lived donor to a nearby acceptor.

The next test addresses T2, human CYP11B1 (Homo sapiens, UniProt P15538).
T2 construct: expressed in transfected cells
T2 sequence (P15538 25-503): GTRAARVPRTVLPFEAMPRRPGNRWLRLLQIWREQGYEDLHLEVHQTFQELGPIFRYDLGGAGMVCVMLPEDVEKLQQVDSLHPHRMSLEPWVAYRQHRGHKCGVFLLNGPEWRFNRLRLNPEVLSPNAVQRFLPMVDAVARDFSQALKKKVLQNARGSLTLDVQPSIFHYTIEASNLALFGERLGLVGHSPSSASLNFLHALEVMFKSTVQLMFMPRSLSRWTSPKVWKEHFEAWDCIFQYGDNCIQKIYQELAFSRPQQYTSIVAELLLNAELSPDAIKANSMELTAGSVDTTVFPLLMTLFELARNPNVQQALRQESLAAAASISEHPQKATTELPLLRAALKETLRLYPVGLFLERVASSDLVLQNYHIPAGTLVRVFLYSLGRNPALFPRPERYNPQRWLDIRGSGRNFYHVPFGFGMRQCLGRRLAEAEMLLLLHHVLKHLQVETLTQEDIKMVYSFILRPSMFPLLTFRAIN
The test can be described thus: G-402 cellular enzyme assay, human CYP11B1 (cortisol release, HTRF). Format: cell-based. The note with it: G-402 cells expressing human CYP11B1; 1 μM Deoxycortisol. Summed up: as §1

Consider `Cc1c(-c2cc3c(cc2F)N(C)C(=O)CC3)cncc1C(C)NC(=O)c1ncccc1Cl` (single isomer, unassigned) [Example 258, 3-Chloro-pyridine-2-carboxylic acid {(R or S)-1-[5-(7-fluoro-1-methyl-2-oxo-1,2,3,4-tetrahydro-quinolin-6-yl)-4-methyl-pyridin-3-yl]ethyl}-amide], for which the negative-log EC50 (pEC50) on human CYP11B2 was 7.89; at human CYP11B1, 6.54.
For the molecule `Cc1cccnc1C(=O)NC1(c2cncc(-c3ccc4c(c3)CCC(=O)N4C)c2)CC1` [Example 143], the pEC50 was 8.05 at human CYP11B2 and 7.29 at human CYP11B1.
Turning to `CCS(=O)(=O)Nc1cncc(-c2ccc3c(c2)CCC(=O)N3C)c1` [Example 1, Ethanesulfonic acid [5-(1-methyl-2-oxo-1,2,3,4-tetrahydro-quinolin-6-yl)-pyridin-3-yl]-amide], the negative-log EC50 (pEC50) is 6.77 on human CYP11B2 and 5.43 on human CYP11B1.
The matching figures for `CCS(=O)(=O)NCCOc1cncc(-c2cc3c(cc2F)N(C)C(=O)CC3)c1` [Example 243, Ethanesulfonic acid {2-[5-(7-fluoro-1-methyl-2-oxo-1,2,3,4-tetrahydro-quinolin-6-yl)-pyridin-3-yloxy]-ethyl}-amide]: 9.00 and 7.59.
For `CN1C(=O)CCc2cc(-c3cncc(N4CC5(CN(C(=O)OC(C)(C)C)C5)C4)c3)ccc21` [Example 29], in that order: 6.59 and 5.25.
On to `CN1C(=O)CCc2cc(-c3cncc(CN)c3Cl)ccc21` [Example 218, 6-(5-Aminomethyl-4-chloro-pyridin-3-yl)-1-methyl-3,4-dihydro-1H-quinolin-2-one hydrochloride], for which the pEC50 was 7.54 on human CYP11B2 and 5.92 on human CYP11B1.
`CCC(=O)NCc1cncc(-c2ccc3c(c2)CCC(=O)N3C)c1Cl` [Example 265, N-[4-Chloro-5-(1-methyl-2-oxo-1,2,3,4-tetrahydro-quinolin-6-yl)-pyridin-3-ylmethyl]-propionamide]: the negative-log EC50 (pEC50) on human CYP11B2 is 8.05; at human CYP11B1 it was 6.21.
For `CN1C(=O)CCc2cc(-c3cncc(CNC(=O)c4cccc(Cl)n4)c3)ccc21` [Example 114], in that order: 8.10 and 6.85.
As for `CCC(=O)N1CC(Oc2cncc(-c3ccc4c(c3)CCC(=O)N4C)c2)C1` [Example 129], the figures for the negative logarithm of the EC50 (pEC50) at human CYP11B2 and on human CYP11B1 were 7.52 and 6.21, respectively.
As to `CN1C(=O)CCc2cc(-c3cncc(O[C@H]4CCN(C(=O)c5cnn(C)c5)C4)c3)ccc21` [Example 255, 1-Methyl-6-{5-[(S)-1-(1-methyl-1H-pyrazole-4-carbonyl)-pyrrolidin-3-yloxy]-pyridin-3-yl}-3,4-dihydro-1H-quinolin-2-one], the pEC50 on human CYP11B2 was 7.89; at human CYP11B1, 5.88.
In the case of `CN1C(=O)CCc2cc(-c3cncc(NCc4ccccc4)n3)ccc21` [Example 25], the negative logarithm of the EC50 (pEC50) at human CYP11B2 was 8.30; on human CYP11B1 it was 6.96.
Regarding `Cc1noc(C)c1C(=O)NCc1cncc(-c2cc(Cl)c3c(c2)CCC(=O)N3)c1` [Example 205, 3,5-Dimethyl-isoxazole-4-carboxylic acid [5-(8-chloro-2-oxo-1,2,3,4-tetrahydro-quinolin-6-yl)-pyridin-3-ylmethyl]-amide], the negative logarithm of the EC50 (pEC50) at human CYP11B2 was 7.01; on human CYP11B1 it was 5.40.
Take `CCS(=O)(=O)N(C)Cc1cncc(-c2cc3c(cc2F)N(C)C(=O)CC3)c1` [Example 211, Ethanesulfonic acid [5-(7-fluoro-1-methyl-2-oxo-1,2,3,4-tetrahydro-quinolin-6-yl)-pyridin-3-ylmethyl]-methyl-amide]: the results for the pEC50 on human CYP11B2 and at human CYP11B1 were 8.30 and 6.92, respectively.
As to `CN1C(=O)CCc2cc(-c3cncc(CNC(=O)c4cnc(C(F)(F)F)cn4)c3)ccc21` [Example 126], the pEC50 on human CYP11B2 is 8.15; on human CYP11B1, 6.19.
The matching figures for `CCC(=O)NCc1cncc(-c2ccc3c(c2)CCC(=O)N3C)c1` [Example 37, N-[5-(1-Methyl-2-oxo-1,2,3,4-tetrahydro-quinolin-6-yl)-pyridin-3-ylmethyl]-propionamide]: 7.36 and 5.80.
For `CN1C(=O)CCc2cc(-c3cncc(C4(N(C)C(=O)c5ncccc5Cl)CC4)c3)ccc21` [Example 201, 3-Chloro-pyridine-2-carboxylic acid methyl-{1-[5-(1-methyl-2-oxo-1,2,3,4-tetrahydro-quinolin-6-yl)-pyridin-3-yl]-cyclopropyl}-amide], the negative-log EC50 (pEC50) was 7.62 on human CYP11B2 and 6.36 at human CYP11B1.
As to `CCS(=O)(=O)N(C)CCOc1cncc(-c2ccc3c(c2)CCC(=O)N3C)c1` [Example 195, Ethanesulfonic acid methyl-{2-[5-(1-methyl-2-oxo-1,2,3,4-tetrahydro-quinolin-6-yl)-pyridin-3-yloxy]-ethyl}-amide], the negative-log EC50 (pEC50) is 9.00 on human CYP11B2 and 7.25 at human CYP11B1.
Regarding `CN1C(=O)CCc2cc(-c3cncc(CN4C(=O)CC[C@H]4CO)c3)ccc21` [Example 8, 6-[5-((S)-2-Hydroxymethyl-5-oxo-pyrrolidin-1-ylmethyl)-pyridin-3-yl]-1-methyl-3,4-dihydro-1H-quinolin-2-one], the negative logarithm of the EC50 (pEC50) on human CYP11B2 was 7.31; on human CYP11B1, 5.63.
Turning to `Cc1nocc1C(=O)NCc1cncc(-c2ccc3c(c2)CCC(=O)N3C)c1` [Example 92], the negative-log EC50 (pEC50) on human CYP11B2 was 7.80; on human CYP11B1, 6.20.
In the case of `CN1C(=O)CCc2cc(-c3cncc(CNS(=O)(=O)c4ccc(Cl)nc4)c3)ccc21` [Example 158, 6-Chloro-pyridine-3-sulfonic acid [5-(1-methyl-2-oxo-1,2,3,4-tetrahydro-quinolin-6-yl)-pyridin-3-ylmethyl]-amide], the pEC50 at human CYP11B2 was 6.62; on human CYP11B1, 5.19.
For `CCS(=O)(=O)NCc1cncc(-c2ccc3c(c2)CCC(=O)N3C)c1C` [Example 194, Ethanesulfonic acid [4-methyl-5-(1-methyl-2-oxo-1,2,3,4-tetrahydro-quinolin-6-yl)-pyridin-3-ylmethyl]-amide], the pEC50 on human CYP11B2 is 7.39; on human CYP11B1, 5.77.
As for `CN1C(=O)CCc2cc(-c3cncc(OCCN)c3)c(F)cc21` [Example 238, 6-[5-(2-Amino-ethoxy)-pyridin-3-yl]-7-fluoro-1-methyl-3,4-dihydro-1H-quinolin-2-one hydrochloride], the negative-log EC50 (pEC50) is 8.30 at human CYP11B2 and 6.29 on human CYP11B1.
Turning to `Cc1noc(C)c1C(=O)NCc1cncc(-c2ccc3c(c2)CCC(=O)N3C)c1Cl` [Example 219, 3,5-Dimethyl-isoxazole-4-carboxylic acid [4-chloro-5-(1-methyl-2-oxo-1,2,3,4-tetrahydro-quinolin-6-yl)-pyridin-3-ylmethyl]-amide], the figures for the pEC50 at human CYP11B2 and at human CYP11B1 were 7.92 and 6.25, respectively.
For `CN1C(=O)CCc2cc(-c3cncc(CN)c3)c(F)cc21` [Example 73, 6-(5-Aminomethyl-pyridin-3-yl)-7-fluoro-1-methyl-3,4-dihydro-1H-quinolin-2-one], the negative logarithm of the EC50 (pEC50) at human CYP11B2 was 7.77; on human CYP11B1, 6.24.
Regarding `CN1C(=O)CCc2cc(-c3cncc(CNS(=O)(=O)c4cccc(Cl)c4)c3)ccc21` [Example 152, 3-Chloro-N-[5-(1-methyl-2-oxo-1,2,3,4-tetrahydro-quinolin-6-yl)-pyridin-3-ylmethyl]-benzenesulfonamide], the negative-log EC50 (pEC50) at human CYP11B2 is 6.81; on human CYP11B1 it was 5.32.
With `Cc1c(CNC(=O)c2ncccc2Cl)cncc1-c1cc2c(cc1F)N(C)C(=O)CC2` [Example 227, 3-Chloro-pyridine-2-carboxylic acid [5-(7-fluoro-1-methyl-2-oxo-1,2,3,4-tetrahydro-quinolin-6-yl)-4-methyl-pyridin-3-ylmethyl]-amide], the values for the pEC50 at human CYP11B2 and at human CYP11B1 were 8.40 and 6.80, respectively.
Regarding `CC(N)c1cncc(-c2ccc3c(c2)CCC(=O)N3C)c1` (single isomer, unassigned) [Example 64, 6-[5-((S or R)-1-Amino-ethyl)-pyridin-3-yl]-1-methyl-3,4-dihydro-1H-quinolin-2-one hydrochloride], the pEC50 was 6.37 on human CYP11B2 and 4.91 at human CYP11B1.
In the case of `COC(=O)[C@@H]1CCCN1Cc1cncc(-c2ccc3c(c2)CCC(=O)N3C)c1` [Example 22], the pEC50 was 7.60 on human CYP11B2 and 7.00 on human CYP11B1.

One may read the pEC50 as the negative decadic logarithm of the EC50, by convention in mol/L. A low value points to a high EC50.
